The source made the active and inactive calls. No cut-off for these calls is given here.
How the values were obtained:
[1] = Half life of compound in PBS buffer at pH 6.0 at 50 uM by HPLC analysis; assay type: physicochemical
[2] = Half life of compound in PBS buffer at pH 7.4 at 50 uM by HPLC analysis; assay type: physicochemical
[3] = Half life in mouse plasma at 25 uM by HPLC analysis; assay type: ADME, cell-free
[4] = Half life in human plasma at 25 uM by HPLC analysis; assay type: ADME, cell-free
[5] = Drug uptake in human A549 cells assessed as blue shift in absorption spectrum at 5 uM by UV-visible absorption spectral analysis; assay type: ADME, cell-based; conditions: a549, 5 µM
[6] = Drug uptake in human A549 cells assessed as maximum emission peaks at 430 nm at 5 uM by fluorescence emission spectral analysis; assay type: ADME, cell-based; conditions: a549, 5 µM
[7] = Drug uptake in human A549 cells assessed as blue fluorescence at 5 uM after 12 hrs by confocal laser scanning microscopic analysis; assay type: ADME, cell-based; conditions: a549, 12 h
[8] = Drug uptake in human A549 cells assessed as endocytosis-mediated total cellular drug internalization at 5 uM after 12 hrs by LC-MS/MS analysis relative to irinotecan; assay type: ADME, cell-based; conditions: a549, 12 h
[9] = Drug uptake in human A549 cells assessed as endocytosis-mediated total cellular drug internalization at 5 uM after 12 hrs by LC-MS/MS analysis relative to SN38; assay type: ADME, cell-based; conditions: a549, 12 h
A549 [10] = test: Antiproliferative activity against human A549 cells assessed as reduction in cell viability after 72 hrs by SRB assay; assay type: functional, cell-based; conditions: A549, 72 h
HCT-116 [11] = test: Antiproliferative activity against human HCT116 cells assessed as reduction in cell viability after 72 hrs by SRB assay; assay type: functional, cell-based; conditions: HCT-116, 72 h
MIA PaCa-2 = test: Antiproliferative activity against human MIAPaCa2 cells assessed as reduction in cell viability after 72 hrs by SRB assay; assay type: functional, cell-based; conditions: MIA PaCa-2, 72 h
CAPAN-1 [12] = test: Antiproliferative activity against human Capan1 cells assessed as reduction in cell viability after 72 hrs by SRB assay; assay type: functional, cell-based; conditions: CAPAN-1, 72 h
L02 = test: Cytotoxicity agains human HL7702 cells assessed as reduction in cell viability after 72 hrs by SRB assay; assay type: cell-based; conditions: L02, 72 h
A549 [13] = test: Induction of cell cycle arrest in human A549 cells assessed as accumulation at G2/M phase after 24 hrs by RNase A/PI-staining based flow cytometric analysis; assay type: functional
HCT-116 [14] = test: Induction of cell cycle arrest in human HCT116 cells assessed as accumulation at G2/M phase after 24 hrs by RNase A/PI-staining based flow cytometric analysis; assay type: functional
CAPAN-1 [15] = test: Induction of cell cycle arrest in human Capan1 cells assessed as accumulation at G2/M phase after 24 hrs by RNase A/PI-staining based flow cytometric analysis; assay type: functional
A549 [16] = test: Downregulation of TOP1 expression in human A549 cells after 24 hrs by Western blot analysis; assay type: functional, cell-based
HCT-116 [17] = test: Downregulation of TOP1 expression in human HCT116 cells after 24 hrs by Western blot analysis; assay type: functional, cell-based
[18] = Metabolic stability in human liver microsomes assessed as compound remaining at 1 uM preincubated for 5 mins followed by NADPH addition and measured after 60 mins by LC-MS/MS analysis; assay type: ADME, Microsome; conditions: read-out: Stability
[19] = Half life in human liver microsomes at 1 uM preincubated for 5 mins followed by NADPH addition and measured up to 360 mins by LC-MS/MS analysis; assay type: ADME, Microsome
[20] = Intrinsic clearance in human liver microsomes at 1 uM preincubated for 5 mins followed by NADPH addition and measured up to 360 mins by LC-MS/MS analysis; assay type: ADME, Microsome; conditions: 6 h
[21] = Half life in BALB/c mouse at 50 mg/kg, iv after 5 to 24 hrs by LC-MS/MS analysis; assay type: ADME, organism-based; conditions: in vivo
[22] = AUC(0 to infinity) in BALB/c mouse at 50 mg/kg, iv after 5 to 24 hrs by LC-MS/MS analysis; assay type: ADME, organism-based; design: dose 50 mg/kg, route intravenous, time infinity; conditions: in vivo
[23] = Apparent volume of distribution at steady state in BALB/c mouse at 50 mg/kg, iv after 5 to 24 hrs by LC-MS/MS analysis; assay type: ADME, organism-based; conditions: in vivo, read-out: Vdss(app)
[24] = Clearance in BALB/c mouse at 50 mg/kg, iv after 5 to 24 hrs by LC-MS/MS analysis; assay type: ADME, organism-based; conditions: in vivo
HCT-116 [25] = test: Antitumor activity against human HCT116 cells xenografted in mouse assessed as reduction in tumor growth at 50 mg/kg, iv for 5 consecutive days per week and measured every 3 to 4 days up to 14 days; assay type: functional, organism-based
HCT-116 [26] = test: Antitumor activity against human HCT116 cells xenografted in mouse assessed as reduction in tumor volume at 50 mg/kg, iv for 5 consecutive days per week and measured every 3 to 4 days up to 14 days by microcaliper analysis relative to control; assay type: functional
HCT-116 [27] = test: Antitumor activity against human HCT116 cells xenografted in mouse assessed as tumor weight at 50 mg/kg, iv for 5 consecutive days per week and measured every 3 to 4 days up to 14 days (reference value: 1.73 +/- 0.53 g); assay type: functional
[28] = Toxicity in mouse xenografted with human HCT116 cells assessed as body weight loss at 50 mg/kg, iv for 5 consecutive days per week and measured every 3 to 4 days up to 14 days relative to control; assay type: organism-based; conditions: in vivo
[29] = Drug uptake in human A549 cells assessed as eHSP90-mediated total cellular drug internalization at 5 uM after 12 hrs by LC-MS/MS analysis; assay type: ADME, cell-based; conditions: a549, 12 h
A549 [30] = test: Ratio of prodrug release in human A549 cells assessed as increase in 7-ethyl-10-hydroxycamptothecin level at 5 uM after 12 hrs by LC-MS/MS analysis to prodrug release in human A549 cells assessed as increase in 7-ethyl-10-hydroxycamptothecin level at 5 uM after 1 hr by LC-MS/MS analysis; assay type: ADME, cell-based; conditions: a549, 5 µM
Heat shock protein HSP90 = Heat shock protein HSP90 (Homo sapiens, UniProt P07900+P08238); test: Drug uptake in human A549 cells assessed as eHSP90-mediated drug internalization by measuring blue fluorescence in PBS solution at 5 uM after 1 to 12 hrs by confocal laser scanning microscopic analysis; assay type: ADME, cell-based; conditions: a549, 5 µM, TDE = time-dependent effect
[31] = biological target: Heat shock protein HSP 90-alpha (Homo sapiens, UniProt P07900); test: biochemical
Description: Inhibition of recombinant human full length HSP90 alpha expressed in Escherichia coli cells after 1 hr by fluorescence polarization assay

[32] = Prodrug release in mouse plasma xenografted with human HCT116 cells assessed as increase in 7-ethyl-10-hydroxycamptothecin level at 50 mg/kg, iv administered as single dose and measured after 30 mins to 72 hrs by LC-MS/MS analysis; assay type: ADME, organism-based; conditions: in vivo
CAPAN-1 [33] = test: Antitumor activity against human Capan1 cells xenografted in mouse assessed as reduction in tumor volume at 50 mg/kg, iv for every 2 days and measured twice per week by microcaliper method relative to control; assay type: functional

## CCc1c2c(nc3ccc(OC(=O)N4CCC(NC(=O)c5noc(-c6cc(C(C)C)c(O)cc6O)c5-c5ccc(CN6CCOCC6)cc5)CC4)cc13)-c1cc3c(c(=O)n1C2)COC(=O)[C@]3(O)CC
[1]
  half-life at 50 µM: > 24 h
[2]
  half-life at 50 µM: > 24 h
[3]
  half-life at 25 µM: > 24 h
[4]
  half-life at 25 µM: > 24 h
[5]
  Drug uptake: Active
[6]
  Drug uptake: Active
[7]
  Drug uptake: Active
[8]
  fold change (FC): 2.8 to 3.8
[9]
  fold change (FC): 1.6 to 1.9
A549 [10]
  IC50: 1110 nM
HCT-116 [11]
  IC50: 614 nM
MIA PaCa-2
  IC50: 644 nM
CAPAN-1 [12]
  IC50: 6800 nM
L02
  IC50: 7360 nM
A549 [13]
  Activity: Dose-dependent effect
HCT-116 [14]
  Activity: Dose-dependent effect
CAPAN-1 [15]
  Activity: Dose-dependent effect
A549 [16]
  TOP1 downregulation: Dose-dependent effect
HCT-116 [17]
  inhibition: Dose-dependent effect
[18]
  remaining at 1 h, 1 µM: 87%
[19]
  half-life at 1 µM: 2.6 h
[20]
  CLH: 4.9 mL/min/kg
[21]
  half-life: 1.72 h
[22]
  AUC(0-inf): 172 µg·h/mL
[23]
  Vd: 0.103 L/kg
[24]
  clearance: 6.91 mL/min/kg
HCT-116 [25]
  Activity: Active
HCT-116 [26]
  T/C: 33.8%
HCT-116 [27]
  Activity: 0.47 g
[28]
  Activity: < 20%
[29]
  Drug uptake: Active
A549 [30]
  Ratio: 3.7
Heat shock protein HSP90
  Drug uptake: Tde
[31]
  IC50: 164 nM

## CCc1c2c(nc3ccc(O)cc13)-c1cc3c(c(=O)n1C2)COC(=O)[C@@]3(CC)OC(=O)CNC(=O)c1noc(-c2cc(C(C)C)c(O)cc2O)c1-c1ccc(CN2CCOCC2)cc1
[1]
  half-life at 50 µM: > 24 h
[2]
  half-life at 50 µM: 10 h
[3]
  half-life at 25 µM: 10.5 h
[4]
  half-life at 25 µM: 13 h
[5]
  Drug uptake: Active
[6]
  Drug uptake: Active
[7]
  Drug uptake: Active
[8]
  fold change (FC): 2.8 to 3.8
[9]
  fold change (FC): 1.6 to 1.9
A549 [10]
  IC50: 56 nM
HCT-116 [11]
  IC50: 22 nM
MIA PaCa-2
  IC50: 46 nM
CAPAN-1 [12]
  IC50: 36 nM
L02
  IC50: 6870 nM
A549 [13]
  Activity: Dose-dependent effect
HCT-116 [14]
  Activity: Dose-dependent effect
CAPAN-1 [15]
  Activity: Dose-dependent effect
A549 [16]
  TOP1 downregulation: Dose-dependent effect
HCT-116 [17]
  inhibition: Dose-dependent effect
[18]
  remaining at 1 h, 1 µM: 80%
[19]
  half-life at 1 µM: 2.1 h
[20]
  CLH: 5.7 mL/min/kg
[21]
  half-life: 1.31 h
[22]
  AUC(0-inf): 148 µg·h/mL
[23]
  Vd: 0.101 L/kg
[24]
  clearance: 5.81 mL/min/kg
HCT-116 [25]
  Activity: Active
HCT-116 [26]
  T/C: 16.7%
HCT-116 [27]
  Activity: 0.32 g
[28]
  Activity: < 20%
[32]
  Drug metabolism: Metabolite_Detected
CAPAN-1 [33]
  T/C: 1.86%
[29]
  Drug uptake: Active
A549 [30]
  Ratio: 4.3
Heat shock protein HSP90
  Drug uptake: Tde
[31]
  IC50: 72 nM
